Test results reported in ChEMBL document CHEMBL4706623, “GPR52 Antagonist Reduces Huntingtin Levels and Ameliorates Huntington's Disease-Related Phenotypes” (J Med Chem, 2021).

Biological target: G-protein coupled receptor 52 (Homo sapiens, UniProt Q9Y2T5)
Assay: Antagonist activity at GPR52 (unknown origin) expressed in HEK293 cells assessed as inhibition of WO459-induced cAMP accumulation preincubated for 15 mins followed by WO459 addition and measured after 30 mins by LANCE Ultra cAMP kit based microplate reader analysis; call rule not given here
Type: functional, cell-based

Sequence of G-protein coupled receptor 52 (Q9Y2T5 whole entry): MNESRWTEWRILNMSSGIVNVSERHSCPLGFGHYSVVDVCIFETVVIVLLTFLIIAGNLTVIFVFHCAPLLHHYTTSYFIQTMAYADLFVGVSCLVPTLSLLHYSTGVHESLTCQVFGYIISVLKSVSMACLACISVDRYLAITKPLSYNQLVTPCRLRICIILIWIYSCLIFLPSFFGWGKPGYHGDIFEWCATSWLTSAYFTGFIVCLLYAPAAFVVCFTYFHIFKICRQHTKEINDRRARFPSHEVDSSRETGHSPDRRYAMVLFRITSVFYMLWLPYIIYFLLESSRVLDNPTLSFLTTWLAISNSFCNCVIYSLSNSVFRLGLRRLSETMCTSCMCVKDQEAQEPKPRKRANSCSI

IC50 (read-out: IC50) [nM] | IC50 (hek293) | Structure (SMILES)
8130 |  | O=C(/C=C/CCc1ccccc1)c1cccc(-c2ccccc2)c1
2570 |  | Cc1cccc(C(=O)/C=C/CCc2ccccc2)c1
 | Not Active | O=C(/C=C/CCc1ccccc1)N1CCCCC1
1520 |  | O=C(/C=C/CCc1ccccc1)c1ccoc1
1720 |  | COc1ccccc1C(=O)/C=C/CCc1ccccc1
1230 |  | O=C(/C=C/CCc1ccccc1)c1ccccc1-c1ccccc1
 | Not Active | CC/C=C/C(=O)c1ccccc1
1490 |  | COc1cccc(C(=O)/C=C/CCc2ccccc2)c1
2630 |  | Cc1ccccc1C(=O)/C=C/CCc1ccccc1
1640 |  | O=C(/C=C/CCc1ccccc1Br)c1ccccc1
2370 |  | O=C(/C=C/CCc1ccccc1)c1cccc(F)c1
